Test results taken from patent US20120328696A1, “ANTI-PARKINSONIAN COMPOUND ACETYLSALICYLIC ACID MALTOL ESTER” (Hutecs Korea Pharmaceutical Co., Ltd., priority 2008, published 2012).

Assays:
Type in all cases: in vivo
[1] = tested on: GPx-1 (+/+)- and GPx-1 (−/−)-mice; assay: MA-induced hyperthermia (rectal temperature); conditions: MA 8 mg/kg i.p. x4
Procedure: (§1) The mice received four times of MA (8 mg/kg, ip) or saline as a 2 hr-time interval. Chemicals (AME, EBS, and PKC inhibitors) were administrated for 5 consecutive days (twice daily), and were given 2 times at 4 hr and 30 min before the first MA injection as shown in the experimental schedule. Animals were sacrificed at 4 hrs and 3 days after the final MA administration.
Rectal temperature was measured in the MA- or saline-treated mice. Measurement was performed at constant daytime intervals starting at 9:00 A.M. to avoid the influence on circadian variations. Rectal temperature was measured by inserting a thermometer probe lubricated with oil at least 3 cm into the rectum of the mice. To prevent sudden movements occurring especially in MA-treated mice, animals were gently handled with a wool glove while their tail was moved to allow the probe insertion. This was done to prevent the effects of restrain stress on rectal temperature. When the attempt to insert probe was not successful (i.e., sudden movements of the animal or the need to restrain the mouse), the animal was excluded from the groups.

GPx-1 = assay: Striatal glutathione peroxidase (GPx) activity after MA; conditions: p.o.; AME 50, EBS 20, rottlerin 20 mg/kg; MA 8 mg/kg i.p. x4; GPx-1 (+/+) mice
Procedure: as §1
GPx were immediately measured from dissected striatal tissues. The tissues were sonicated in ice-cold 50 mM potassium phosphate buffer (pH 7.4, containing 2 mM EDTA), and were centrifuged at 11,000×g for 15 min at 4° C. The resulting supernatants were collected and the protein concentrations were quantified with the Quant-iT assays, using the Qubit™ fluorometer (Invitrogen, Carlsbad, Calif., USA). Cellular GPx activity was measured by the method of Paglia and Valentine (1967) with minor modification (Shin et al., 2008). The incubation mixture contained 1 mM glutathione, 0.2 mM NADPH, and 1.4 IU glutathione reductase in 0.05 M potassium phosphate buffer, pH 7.0. The reaction was initiated by the simultaneous addition of supernatant (0.3-0.8 mg protein) and 0.25 mM H2O2. The change in absorbance at 340 nm was followed by for 4.5 min and 1 UI of GPx activity was defined as the amount required to oxidize 1 μM NADPH/min, based on the molar absorptivity of […] for NADPH.

TH phospho-ser 40 = assay: Striatal phospho-TH-ser 40 after MA (western blot); conditions: p.o.; AME 50, EBS 20, rottlerin 20 mg/kg; MA 8 mg/kg i.p. x4; GPx-1 (+/+) and (−/−) mice
Procedure: as §1
The western blot assays was performed as described previously (Kim et al., 2003). Tissues were homogenized in lysis buffer, containing 200 mM Tris HCl (pH 6.8), 1% SDS, 5 mM EGTA (ethylene glycol tetraacetic acid), 5 mM EDTA (ethylenediaminetetraacetic acid), 10% glycerol, 1× phosphatase inhibitor cocktail I, 1× protease inhibitor cocktail. Lysate was centrifuged at 12,000×g for 30 min and supernatant fraction was used for Western blot analysis. Proteins (20-50 ug/lane) were separated by 6%, 8%, 10% or 15% sodium dodecyl sulfate-polyacrylamide gel electrophoresis and transferred onto the PVDF membranes. Following transfer, the membranes were preincubated with 5% non-fat milk and incubated overnight at 4° C. with primary antibody against β-actin (1:50000, Sigma, St. Louis, Mo., USA), TH (1:5000, Chemicon), TH phosphor-Ser 19 (1:1000, Chemicon,), TH phosphor-Ser 31 (1:500, Chemicon), TH phosphor-Ser 40 (1:500, Chemicon), F4/80 (1:500, Serotec), GPx1 (1:2500, AbFrontier), PKC (1:5000, Santa Cruz biotechnology, Santa Cruz, Calif., USA), p53 (1:5000, Cell signaling, Beverly, Mass., USA), MDM2 (1:1000, BD Pharmingen, San Jose, Calif., USA), MDM2 phospho-Ser 166 (1:1000, cell signaling), BDNF (1:500, Chemicon), GDNF (1:250, Santa Cruz), COX-2 (1:2000, Cayman, Ann Arbor, MC, USA), IL-6 (1:2000, Abcam, Cambridge, Mass., USA), TNF-a (1:1000, R&D Systems, Mckinley place NE, NM, USA), IFN-γ (1:500, Chemicon) or Iba-1 (1:500, Wako, Osaka, Japan). And then, membranes were incubated with HRP-conjugated secondary anti-rabbit IgG (1:1000, GE healthcare, Piscataway, N.J., USA), anti-mouse IgG (1:1000, Sigma) or anti-goat IgG (1:1000, Sigma) for 2 h. […]

[2] = tested on: GPx-1 (+/+)- and GPx-1 (−/−)-mice; assay: Locomotor activity after MA; conditions: MA 8 mg/kg i.p. x4, GPx-1 (+/+) and (−/−) mice
Procedure: as §1
Locomotor activity was measured for 30 min 3 days after the last MA administration using an automated video-tracking system (Noldus Information Technology, Wagenin, The Netherlands). Four test boxes (40×40×30 cm high) were operated simultaneously by an IBM computer. Mice were studied individually during locomotion in each test box, where they were adapted for 5 min before starting the experiment. […] The distance traveled in cm by the animals in horizontal locomotor activity was analyzed. Data were collected and analyzed between 09:00 and 17:00 h (Kim et al., 2001).

protein carbonyl = assay: Striatal protein oxidation (protein carbonyl) after MA; conditions: biochemical assay and slot blot; striatum, 3 days after final MA; p.o.; AME 50, EBS 20, rottlerin 20 mg/kg; GPx-1 (+/+) and (−/−) mice
Procedure: as §1
The amount of oxidized proteins was measured using the Oxyblot kit (Chemicon International, CA) according to the instruction provided by manufacturer. Briefly, the protein carbonyl content was measured by first forming labeled protein hydrazone derivatives using 2,4-dinitrophenylhydrazide (DNP). The DNP-derivatized protein samples were transferred onto PVDF membrane by slot blot apparatus (GE Healthcare). Blots were then incubated with primary antibody specific to the DNP moiety, followed by incubation with a HRP-conjugated secondary antibody. Subsequent visualization was performed using enhanced chemiluminescence system (ECL Plus®, GE healthcare) (Gemma et al., 2004).
The extent of protein carbonyl oxidation in the striatum was assessed by measuring the content of protein carbonyl groups, which was determined spectrophotometrically with the 2,4-dinitrophenyl-hydrazine (DNPH)-labeling procedure (Kim et al., 1997b, 2000b, 2002) as described by Oliver et al. (1987). The results were expressed as nmol of DNPH incorporated/mg protein based on the extinction coefficient for aliphatic hydrazones of 21 mM^−1 cm^−1. Protein was measured using the BCA protein assay reagent (Pierce, Rockford, Ill., USA).

[3] = p.o., AME 25 or 50, EBS 10 or 20, rottlerin 10 or 20 mg/kg (p<0.01 at high dose), GPx-1 (+/+) and (−/−) mice
[4] = p.o., AME 25 or 50, EBS 10 or 20, rottlerin 10 or 20 mg/kg

| SMILES | effect on MA-induced hyperthermia [1, 3] | effect on MA-induced decrease in striatal GPx-1 activity (GPx-1) | effect on MA-induced decrease in phospho-TH-ser 40 (TH phospho-ser 40) | effect on MA-induced impairment in locomotor activity [2, 4] | effect on MA-induced increase in protein oxidation (protein carbonyl) | effect on MA-induced hyperthermia ([1]; PKC inhibitors intra-striatal (doses of Table 1), GPx-1 (+/+) and GPx-1 (−/−) mice) | effect on MA-induced impairment in locomotor activity ([2]; PKC inhibitors intra-striatal (chelerythrine 0.2 ug/head, rottlerin 3.0 ug/head significant)) |
| --- | --- | --- | --- | --- | --- | --- | --- |
| O=c1c2ccccc2[se]n1-c1ccccc1 [EBS, 2-phenyl-1,2-benzisoselenazol-3(2H)-one] | attenuated hyperthermia induced by MA in a dose-related manner | inhibited MA-induced decrease | significantly blocked | inhibited these effects in a dose-dependent manner | significantly attenuated |  |  |
| CC(=O)Oc1ccccc1C(=O)Oc1c(C)occc1=O [AME, 3-(2-methyl-4-pyronyl)-2-acetyloxybenzoate] | attenuated hyperthermia induced by MA in a dose-related manner | inhibited MA-induced decrease | significantly blocked | inhibited these effects in a dose-dependent manner | significantly attenuated |  |  |
| CC(=O)c1c(O)c(C)c(O)c(Cc2c(O)c3c(c(C(=O)/C=C/c4ccccc4)c2O)OC(C)(C)C=C3)c1O [rottlerin] | attenuated hyperthermia induced by MA in a dose-related manner | inhibited MA-induced decrease | significantly blocked | inhibited these effects in a dose-dependent manner | significantly attenuated | significantly blocked MA-induced hyperthermia in a dose-dependent manner | attenuated the MA-behavioral impairments in a dose-dependent manner |
